Values after ≈ are worked out from the molar mass of the structure shown. Read-outs that look alike come from different tables or passages of the source. A value given as a limit tells only on which side of the number the result lay.

The record followed here is patent US4366162A, “Aryl ethers of N-alkyl-piperidines and acid addition salts thereof” (AB Ferrosan, priority 1977, dated 1982).

Experiment [1] concerns isolation induced aggressive behaviour. As to the kind of experiment: Isolation induced aggressive behaviour test (inhibition of aggression). It is filed as in vivo, Male albino mice. The following applies: Mus musculus, sc, 1 h, read-out: ED50, Inhibition aggression test. On the procedure:
Male albino mice were used. Tests were conducted 60 minutes after subcutaneous drug administration.
(§1) The ED50 -values expressed in milligrams per kilogram body weight in the anti-amphetamine test, in the anti-apomorphine test and in the inhibition of aggression test are presented in Table I.

Experiment [2] deals with amphetamine induced behavioural stereotypies. The experiment can be described thus: Anti-amphetamine test: inhibition of compulsory gnawing and chewing responses to amphetamine. Type of experiment: in vivo, Sprague Dawley female rats. Particulars: Rattus norvegicus, sc, read-out: ED50, Anti-amphetamine test. On the procedure:
Conventional types of neuroleptics are potent inhibitors of amphetamine induced behavioural stereotypies. One determines in Sprague Dawley female rats the ability of subcutaneously administered compounds to inhibit compulsory gnawing and chewing responses to a subcutaneous dose of 10 mg/kg of amphetamine administered half an hour after the compound to be tested. The new compounds of formula I are weak antagonists in this test.
as §1

Experiment [3] relates to serotonin induced contraction of the rat ileum. The experiment can be described thus: Antiserotoninergic activity: serotonin induced contraction of the rat ileum. Particulars: serotonin 220 ng/ml, 50% inhibition of the contraction.
Method: They show antiserotoninergic activity evaluated from the effects on serotonin (220 ng/ml) induced contraction of the rat ileum.
Experiment [4] deals with acetylcholine induced contraction of guinea pig ileum. As to the kind of experiment: Anticholinergic activity: acetylcholine induced contraction of guinea pig ileum. The following applies: acetylcholine 0.02 μg/ml, 50% inhibition of the contraction.
Experiment [5] relates to histamine induced contraction of guinea pig ileum. As to the kind of experiment: Antihistaminic activity: histamine induced contraction of guinea pig ileum. The following applies: histamine 0.2 μg/ml, 50% inhibition of the contraction.
Experiment [6] deals with apomorphine induced emesis. As to the kind of experiment: Anti-apomorphine test: antagonism of apomorphine induced emesis. Type of experiment: in vivo, dogs. Particulars: Canis lupus familiaris, sc, read-out: ED50, Anti-apomorphine test. As for the experimental part:
All typical chloropromazine-like neuroleptics are powerful antagonists of apomorphine induced emesis in dogs by virtue of their blocking action on the chemo-emetic trigger zone. The compounds listed in Table I were administered subcutaneously. The animals were challenged half an hour after subcutaneous administration with a standard dose of 0.06 mg/kg of apomorphine hydrochloride (subcutaneously). […] The ED50 -values expressed in milligrams per kilogram body weight in the anti-amphetamine test, in the anti-apomorphine test and in the inhibition of aggression test are presented in Table I.

The mark [7] stands for this setting: male albino mice, 60 minutes after subcutaneous administration.

Take `CCC(=O)OC1(C(=O)c2ccc(F)cc2)CCN(CCCOc2ccc(C(C)=O)cc2OC)CC1` [III]: in experiment [1] (setting [7]), the ED50 was determined as 2 mg/kg.

For `COc1cc(C(C)=O)ccc1OCCCN1CCC(O)(C(=O)c2ccc(F)cc2)CC1` [I, 1-[3-(p-acetyl-o-methoxyphenoxy)-propyl]-4-(p-fluorobenzoyl)-4-hydroxypiperidine], the median effective dose (ED50) in experiment [2] (rats, subcutaneous, half an hour before 10 mg/kg amphetamine s.c.) amounted to 20 mg/kg; in experiment [1] (setting [7]) it was 0.5 mg/kg; in experiment [6] (dogs, subcutaneous, half an hour before 0.06 mg/kg apomorphine hydrochloride s.c.), 7.1 mg/kg. Moreover, the “ED50, Antiseroto-ninergic activity” value in experiment [3] is reported as 0,1 μg/ml. Further, the “ED50, Anticholinergic activity” value in experiment [4] is above 100 µg/mL. Also, the “ED50, Antihistaminic activity” value in experiment [5] is 0,06 μg/ml.

As to `COc1cc(C(C)=O)ccc1OCCCCN1CCC(O)(C(=O)c2ccc(F)cc2)CC1` [II], the ED50 in experiment [1] (setting [7]) came to 1.5 mg/kg.

Take `O=C(CCCN1CCC(O)(c2ccc(Cl)cc2)CC1)c1ccc(F)cc1` [Haloperidol, haloperidol]: the ED50 is 0.03 mg/kg in experiment [2] and 0.8 mg/kg in experiment [1].

In the case of `CN(C)CCCN1c2ccccc2Sc2ccc(Cl)cc21` [Chlorpromazine, chlorpromazine], the values for the ED50 in experiment [2], in experiment [1] and in experiment [6] were 1.2 mg/kg, 0.4 mg/kg and 0.7 mg/kg, respectively. Moreover, the “ED50, Antiseroto-ninergic activity” value in experiment [3] is 6 µg/mL (≈ 18.8 µM). For the same molecule, the “ED50, Anticholinergic activity” value in experiment [4] was 1,7 μg/ml. For the same molecule, the “ED50, Antihistaminic activity” value in experiment [5] is listed as 0,03 μg/ml.
